Biological target: T1, LIN28–let-7 complex (Homo sapiens, UniProt Q9H9Z2)
T1 construct: Purified LIN28A (residues 16–187) was incubated at a concentration of 200 nM; His-tag (cleaved yes); made in house; host or cells: Escherichia coli BL21(DE3)
T1 sequence (Q9H9Z2 16-187): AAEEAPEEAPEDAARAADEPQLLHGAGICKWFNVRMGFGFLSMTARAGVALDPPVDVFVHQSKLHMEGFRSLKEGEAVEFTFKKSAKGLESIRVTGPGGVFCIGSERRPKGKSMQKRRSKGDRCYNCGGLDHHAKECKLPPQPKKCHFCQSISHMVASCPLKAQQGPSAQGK
Assay: Electrophoretic mobility shift assay (EMSA)
Assay type: binding
Protocol: was detected after incubation at room temperature using a TECAN Spark plate reader. Half maximal
inhibitory concentrations (IC50) were determined using GraphPad Prism 7.
Compound screening. High throughput screening was performed in low volume 384 well plates
(Corning 4514) with 30 µM compound, 40 nM LIN28A, and 2 nM preE-let-7f-1-FAM in FP assay
buffer. Compounds were transferred with an ECHO 520 liquid handler and protein and RNA were
added with a multidrop dispenser. Protein and RNA were added stepwise with a 30 min incubation
period in between. FP was detected after a final incubation of 15 min with an Envision plate reader
and fluorescence was measured with a Paradigm plate reader. A reaction without LIN28 served as a
negative control and one without compound was used as a positive control. The software Quattro
Workflow (Quattro Research GmbH) was used for the analysis of screening data.
Electrophoretic mobility shift assay. EMSA was used as a secondary assay to validate FP-assay hit
molecules. Purified LIN28A (residues 16–187) was incubated with compound and 5 U recombinant
ribonuclease inhibitor (Takara Bio) in EMSA reaction buffer (50 mM Tris (pH 7.5), 100 mM NaCl,
10 mM β-mercaptoethanol, 50 µM ZnCl2, 2 % DMSO, 0.01 % Tween 20, 12 % glycerol) for 2 hours
at room temperature. Subsequently, preE-let-7f-1-Cy3 (mus musculus) (GGGGUAGUGAUUUUAC
CCUGUUUAGGAGAU-Cy3, purchased from IDT) was added to a final concentration of 5 nM and
a reaction volume of 50 µL. The final concentration of LIN28A was 10 nM and compound
concentrations up to 75 µM were used. The reaction mixtures were incubated for a further 15 minutes
and 10 µL loading dye (40 % glycerol, 1.5x TAE) was added. 10 µL of each reaction was separated
in an 8 % polyacrylamide TAE gel at 4 °C and 220 V for 1 h using 0.25x TAE as running buffer. Cy3
fluorescence was detected with a ChemiDoc M P (Bio-Rad) and 2 minutes of exposure time.
Thermal shift assay. Thermal stability of the cold shock domain construct LIN28 A (residues 16–
126) with and without compound was monitored using a NanoTemper Prometheus NT.48 nano -

O=C(C1=C(O)C(=O)N(c2ccc(O)c(C(=O)O)c2)C1c1ccc(-c2nccs2)cc1)c1ccc(Br)cc1 (centres unmarked) [C902/PH-31]
inhibition of the LIN28–let-7 complex in EMSA (compound concentrations up to 75 µM): dose-dependent micromolar inhibition | IC50 (relative fluorescence intensity of let-7f divided by that of LIN28–let-7f complex plus let-7f): 38 µM
